In patent US10336768B2, “Pyrimidine compounds and methods using the same” (Yuma Therapeutics, Inc., priority 2014, dated 2019):

These molecules were tested on T1, His-tagged-Hsp90 (assay: Hsp90 biochemical assay (AlphaLISA)). Settings: IC50 class; AlphaLISA (primary assay); read-out: Hsp90 inhibitory activity.
T1 construct: fused on or other part: His tag (captured on Ni2+-coated beads)
Type: binding
Procedure: This assay employs biotinylated geldanamycin, His-tagged-Hsp90, and Ni^+2 coated beads. This assay is homogenous and miniaturized to 384-well plates. Measurement of binding activity was performed on an Envision reader. […] This assay is the primary assay for evaluating compounds of the invention.

First: COc1ccc(Cl)c(-c2cc(Cl)nc(N)n2)c1 [Compound 78]
Second: COc1cc(-c2cc(Cl)nc(N)n2)ccc1Cl [Compound 79]
The IC50 of the first is higher: 1 to 4 µM for the first, < 1 µM for the second.

Compared with COc1cc(-c2cc(C)nc(N)n2)c(C(F)(F)F)cc1Cl [compound 1], COc1cc(-c2cc(C)nc(N)n2)c(Cl)cc1Cl [compound 38] is lower in IC50: > 10 µM for the first, 1 to 4 µM for the second. The second is the more potent here.

Compared with Cc1cc(-c2cc(OC(C)C)c(Cl)cc2Cl)nc(N)n1 [compound 2], COc1cc(-c2cc(SC)nc(N)n2)c(Cl)cc1Cl [compound 35] is lower in IC50: 1 to 4 µM for the first, < 1 µM for the second.

CNc1nc(C)cc(-c2c(Cl)cc(Cl)c3c2CCO3)n1 [compound 3, 4-(5,7-Dichloro-2,3-dihydrobenzofuran-4-yl)-N,6-dimethylpyrimidin-2-amine] and Cc1cc(-c2c(Cl)cc(Cl)c3c2CCO3)nc(N(C)C)n1 [compound 4, 4-(5,7-Dichloro-2,3-dihydrobenzofuran-4-yl)-N,N,6-trimethylpyrimidin-2-amine] cannot be ordered by IC50: > 10 µM for the first, > 10 µM for the second.

First: COc1cc(-c2nc(N)nc3c2CCC3)c(Cl)cc1F [compound 11, 4-(2-chloro-4-fluoro-5-methoxyphenyl)-6,7-dihydro-5H-cyclopenta[d]pyrimidin-2-amine]
Second: COc1cc(-c2nc(N)nc3c(Br)c[nH]c23)c(Cl)cc1Cl [compound 57, 7-bromo-4-(2,4-dichloro-5-methoxyphenyl)-5H-pyrrolo[3,2-d]pyrimidin-2-amine]
The IC50 of the first is lower: 4 to 10 µM for the first, > 10 µM for the second.

Compared with Nc1nc2c(c(-c3c(Cl)cc(Cl)c4c3CCO4)n1)CCCC2 [compound 15, 4-(5,7-dichloro-2,3-dihydrobenzofuran-4-yl)-5,6,7,8-tetrahydroquinazolin-2-amine], Nc1nc(Cl)c(N)c(-c2c(Cl)cc(Cl)c3c2CCO3)n1 [compound 52, 4-chloro-6-(5,7-dichloro-2,3-dihydrobenzofuran-4-yl)pyrimidine-2,5-diamine] is lower in IC50: 4 to 10 µM for the first, < 1 µM for the second.

CCNC(=O)N1Cc2nc(N)nc(-c3c(Cl)cc(Cl)c4c3CCO4)c2C1 [compound 17] and CCNC(=O)Cn1ccc2nc(N)nc(-c3c(Cl)cc(Cl)c4c3CCO4)c21 [compound 31] cannot be ordered by IC50: > 10 µM for the first, > 10 µM for the second.

Cn1ccc2c(-c3c(Cl)cc(Cl)c4c3CCO4)nc(N)nc21 [compound 30] and CCNC(=O)Cn1ccc2c(-c3c(Cl)cc(Cl)c4c3CCO4)nc(N)nc21 [compound 32] cannot be ordered by IC50: > 10 µM for the first, > 10 µM for the second.

First: CNc1cc(-c2c(Cl)cc(Cl)c3c2CCO3)nc(N)n1 [compound 33]
Second: Nc1nc(Cl)cc(-c2c(Cl)cc(Cl)c3c2CCO3)n1 [compound 49, 4-chloro-6-(5,7-dichloro-2,3-dihydrobenzofuran-4-yl)pyrimidin-2-amine]
The IC50 of the first is higher: 4 to 10 µM for the first, < 1 µM for the second.

Compared with COc1cc(-c2nc(N)nc(SC)n2)c(Cl)cc1Cl [compound 34], COc1cc(-c2nc(N)nc(-c3cc(OC)c(Cl)cc3Cl)n2)c(Cl)cc1Cl [compound 37] is higher in IC50: < 1 µM for the first, > 10 µM for the second.

Compared with Nc1nc(-c2c(Cl)cc(Cl)c3c2CCO3)cc(C(F)(F)F)n1 [compound 50, 4-trifluoromethyl-6-(5,7-dichloro-2,3-dihydrobenzofuran-4-yl)pyrimidin-2-amine], Nc1nc(O)cc(-c2c(Cl)cc(Cl)c3c2CCO3)n1 [compound 53, 2-amino-6-(5,7-dichloro-2,3-dihydrobenzofuran-4-yl)pyrimidin-4-ol] is higher in IC50: 1 to 4 µM for the first, > 10 µM for the second.

First: CSc1cc(-c2c(Cl)cc(Cl)c3c2CCO3)nc(N)n1 [compound 51, 4-thiomethyl-6-(5,7-dichloro-2,3-dihydrobenzofuran-4-yl)pyrimidin-2-amine]
Second: CC(C)(O)c1cc2c(-c3c(Cl)cc(Cl)c4c3CCO4)nc(N)nc2s1 [compound 77, 2-(2-amino-4-(5,7-dichloro-2,3-dihydrobenzofuran-4-yl)thieno[2,3-d]pyrimidin-6-yl)propan-2-ol]
The IC50 of the first is lower: < 1 µM for the first, 1 to 4 µM for the second. The first is the more potent here.

Compared with COC(=O)n1ccc2nc(N)nc(-c3c(Cl)cc(Cl)c4c3CCO4)c21 [compound 54, Methyl 2-amino-4-(5,7-dichloro-2,3-dihydrobenzofuran-4-yl)-5H-pyrrolo[3,2-d]pyrimidine-5-carboxylate], CNC(=O)c1cc2c(-c3c(Cl)cc(Cl)c4c3CCO4)nc(N)nc2s1 [compound 63, 2-amino-4-(5,7-dichloro-2,3-dihydrobenzofuran-4-yl)-N-methylthieno[2,3-d]pyrimidine-6-carboxamide] is lower in IC50: > 10 µM for the first, < 1 µM for the second.

Going from Nc1nc(-c2c(Cl)cc(Cl)c3c2CCO3)c2[nH]cc(C=O)c2n1 [compound 56, 2-amino-4-(5,7-dichloro-2,3-dihydrobenzofuran-4-yl)-5H-pyrrolo[3,2-d]pyrimidine-7-carbaldehyde] to CCC(=O)c1cc2c(-c3c(Cl)cc(Cl)c4c3CCO4)nc(N)nc2s1 [compound 76, 1-(2-amino-4-(5,7-dichloro-2,3-dihydrobenzofuran-4-yl)thieno[2,3-d]pyrimidin-6-yl)propan-1-one], the IC50 falls from > 10 µM to < 1 µM. The second is the more potent here.

First: Nc1nc(-c2c(Cl)cc(Cl)c3c2CCO3)c2cc(C(=O)NCCN3CCCC3)sc2n1 [compound 58, 2-amino-4-(5,7-dichloro-2,3-dihydrobenzofuran-4-yl)-N-(2-(pyrrolidin-1-yl)ethyl)thieno[2,3-d]pyrimidine-6-carboxamide]
Second: Nc1nc(-c2c(Cl)cc(Cl)c3c2CCO3)c2cc(C(=O)N3CCCC3)sc2n1 [compound 69, (2-amino-4-(5,7-dichloro-2,3-dihydrobenzofuran-4-yl)thieno[2,3-d]pyrimidin-6-yl)(pyrrolidin-1-yl)methanone]
The IC50 of the first is lower: < 1 µM for the first, 1 to 4 µM for the second.

N#CCCNC(=O)c1cc2c(-c3c(Cl)cc(Cl)c4c3CCO4)nc(N)nc2s1 [compound 59, 2-amino-N-(2-cyanoethyl)-4-(5,7-dichloro-2,3-dihydrobenzofuran-4-yl)thieno[2,3-d]pyrimidine-6-carboxamide] and Nc1nc(-c2c(Cl)cc(Cl)c3c2CCO3)c2cc(C(=O)NCCO)sc2n1 [compound 60, 2-amino-4-(5,7-dichloro-2,3-dihydrobenzofuran-4-yl)-N-(2-hydroxyethyl)thieno[2,3-d]pyrimidine-6-carboxamide] cannot be ordered by IC50: < 1 µM for the first, < 1 µM for the second.

First: Nc1nc(-c2c(Cl)cc(Cl)c3c2CCO3)c2cc(C(=O)NCC(F)(F)F)sc2n1 [compound 61, 2-amino-4-(5,7-dichloro-2,3-dihydrobenzofuran-4-yl)-N-(2,2,2-trifluoroethyl)thieno[2,3-d]pyrimidine-6-carboxamide]
Second: CN(CC(F)(F)F)C(=O)c1cc2c(-c3c(Cl)cc(Cl)c4c3CCO4)nc(N)nc2s1 [compound 70, 2-amino-4-(5,7-dichloro-2,3-dihydrobenzofuran-4-yl)-N-methyl-N-(2,2,2-trifluoroethyl)thieno[2,3-d]pyrimidine-6-carboxamide]
The IC50 of the first is lower: < 1 µM for the first, 4 to 10 µM for the second.

Nc1nc(-c2c(Cl)cc(Cl)c3c2CCO3)c2cc(C(=O)NC3CC3)sc2n1 [compound 62, 2-amino-N-cyclopropyl-4-(5,7-dichloro-2,3-dihydrobenzofuran-4-yl)thieno[2,3-d]pyrimidine-6-carboxamide] and Nc1nc(-c2c(Cl)cc(Cl)c3c2CCO3)c2cc(C(=O)NC3CCC3)sc2n1 [compound 65, 2-amino-N-cyclobutyl-4-(5,7-dichloro-2,3-dihydrobenzofuran-4-yl)thieno[2,3-d]pyrimidine-6-carboxamide] cannot be ordered by IC50: < 1 µM for the first, < 1 µM for the second.

COCCNC(=O)c1cc2c(-c3c(Cl)cc(Cl)c4c3CCO4)nc(N)nc2s1 [compound 64, 2-amino-4-(5,7-dichloro-2,3-dihydrobenzofuran-4-yl)-N-(2-methoxyethyl)thieno[2,3-d]pyrimidine-6-carboxamide] and CON(C)C(=O)c1cc2c(-c3c(Cl)cc(Cl)c4c3CCO4)nc(N)nc2s1 [compound 75, 2-amino-4-(5,7-dichloro-2,3-dihydrobenzofuran-4-yl)-N-methoxy-N-methylthieno[2,3-d]pyrimidine-6-carboxamide] cannot be ordered by IC50: < 1 µM for the first, < 1 µM for the second.

Compared with CN(C)C(=O)c1cc2c(-c3c(Cl)cc(Cl)c4c3CCO4)nc(N)nc2s1 [compound 66, 2-amino-4-(5,7-dichloro-2,3-dihydrobenzofuran-4-yl)-N,N-dimethylthieno[2,3-d]pyrimidine-6-carboxamide], CN(C(=O)c1cc2c(-c3c(Cl)cc(Cl)c4c3CCO4)nc(N)nc2s1)C1CC1 [compound 74, 2-amino-N-cyclopropyl-4-(5,7-dichloro-2,3-dihydrobenzofuran-4-yl)-N-methylthieno[2,3-d]pyrimidine-6-carboxamide] is higher in IC50: < 1 µM for the first, 1 to 4 µM for the second.

Compared with Nc1nc(-c2c(Cl)cc(Cl)c3c2CCO3)c2cc(C(=O)NC3COC3)sc2n1 [compound 67, 2-amino-4-(5,7-dichloro-2,3-dihydrobenzofuran-4-yl)-N-(oxetan-3-yl)thieno[2,3-d]pyrimidine-6-carboxamide], CN(C(=O)c1cc2c(-c3c(Cl)cc(Cl)c4c3CCO4)nc(N)nc2s1)C1COC1 [compound 72, 2-amino-4-(5,7-dichloro-2,3-dihydrobenzofuran-4-yl)-N-methyl-N-(oxetan-3-yl)thieno[2,3-d]pyrimidine-6-carboxamide] is higher in IC50: < 1 µM for the first, 1 to 4 µM for the second.

Compared with Nc1nc(-c2c(Cl)cc(Cl)c3c2CCO3)c2cc(C(=O)N3CCOCC3)sc2n1 [compound 68, (2-amino-4-(5,7-dichloro-2,3-dihydrobenzofuran-4-yl)thieno[2,3-d]pyrimidin-6-yl)(morpholino)methanone], CN(CCC#N)C(=O)c1cc2c(-c3c(Cl)cc(Cl)c4c3CCO4)nc(N)nc2s1 [compound 71, 2-amino-N-(2-cyanoethyl)-4-(5,7-dichloro-2,3-dihydrobenzofuran-4-yl)-N-methylthieno[2,3-d]pyrimidine-6-carboxamide] is lower in IC50: 1 to 4 µM for the first, < 1 µM for the second. The second is the more potent here.

Same assay, conditions: known Hsp90 inhibitor, biotinylated geldanamycin; read-out: IC50 (AlphaLISA assay validation)

For CC(C)NCCCn1c(Sc2cc3c(cc2I)OCO3)nc2c(N)ncnc21 [PU-H71, reference compound], the IC50 was 0.06 µM.
